Reference: US9580713B2 (priority 2011, dated 2017)
Where “and” joins values, the source holds several entries; their conditions need not be identical. Identical values can stand only once. Entries after “also recorded” stand apart in the source; their conditions may differ. Like-named read-outs stand apart in the source and are kept apart here.

Assays:
[1] = tested on: 78 Psy crcB motif RNA (fluoride riboswitch aptamer); type: binding, Pseudomonas syringae
[2] = target: T1, fluoride transporter protein CrcB (Escherichia coli, UniProt P37002); assay: Fluoride riboswitch beta-galactosidase reporter (4-MUG) in E. coli with imipramine; type: cell-based
T1 construct: this bacterial species does code for a CrcB protein; endogenous in cells; host or cells: E. coli
T1 sequence (P37002 whole entry): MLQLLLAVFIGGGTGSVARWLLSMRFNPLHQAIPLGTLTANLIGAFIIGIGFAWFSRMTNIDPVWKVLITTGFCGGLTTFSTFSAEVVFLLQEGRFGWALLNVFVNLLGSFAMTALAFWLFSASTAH
Source text: (§1) A fluoride riboswitch fused to a beta-galactosidase reporter gene is present in E. coli cells and cells are exposed to concentrations of sodium fluoride and imipramine (x-axis) as noted. The structure of imipramine is shown below.

[3] = tested on: E. coli cells lacking the gene to express the fluoride transporter protein CrcB; assay: Fluoride riboswitch beta-galactosidase reporter (4-MUG) in E. coli lacking CrcB with imipramine; type: cell-based; conditions: same construct in cells lacking CrcB, compared with cells having CrcB
Source text: as §1

crcB motif RNA [4] = conditions: read-out: KD for fluoride binding; in-line probing
Protocol: (§2) Briefly, in vitro transcribed RNA were 5′ ^32P-radiolabeled and trace amounts (˜1 nM) were incubated at room temperature for 48 hours (unless otherwise indicated) in the presence of 100 mM KCl, 50 mM Tris-HCl (pH 8.3 at 23° C.), and 20 mM MgCl2. Cleavage products were separated by using denaturing 10% PAGE and imaged with a PhosphorImager (Molecular Dynamics). ImageQuant 5.1 was used to establish band intensities. Exceptions to the typical in-line probing methods are detailed in the following sections.

[5] = tested on: crcB KO strain of E. coli; assay: microbe, parasite or virus in culture
Protocol: (§3) Cell growth of WT and crcB KO E. coli strains were measured overnight using a Bioscreen C instrument (Oy Growth Curves Ab Ltd, Finland). The amount of fluoride added to the media was varied to measure the effect on growth at several pH values. Reporter constructs with B. cereus or P. syringae riboswitch sequences fused to the lacZ gene were cloned into the vectors pDG1661 or pRS414, respectively. The two vectors were transformed into B. subtilis or E. coli, and gene expression was examined by addition of X-gal into grown cultures or quantified with Miller assays.
(§4) Growth curves to compare pH conditions used 350 μL of LB (neutral pH) or LBK medium (pH 5.5), 3.5 μL of an overnight culture, and 3.5 μL, of a 10× sodium fluoride or sodium chloride solution. Growth curves with empty or eriC^F-containing plasmid included 100 μg mL^−1 carbenicillin added to the growth medium (2XLB), which was subsequently diluted two-fold to a final concentration of 50 μg mL^−1.
(§5) E. coli strains BW25113 and its crcB KO derivative strain harboring the eriC^F riboswitch reporter construct were streaked on modified LB plates with carbenicillin (100 μg mL^−1) and X-gal (800 μg ml^−1). Plates included 0, 0.2 or 50 mM NaF.

[6] = tested on: eriC^F-rescued E. coli crcB KO cells
Protocol: The eriC^F gene from P. syringae DC3000 was amplified from genomic DNA by PCR and cloned into the pCR2.1 TA vector (Invitrogen). The cloned fragment contained the full length eriC^F ORF, the 5′ UTR features described above, and the native promoter to drive expression.
as §4

crcB motif RNA [7] = conditions: read-out: KD for fluoride binding; in-line probing; remark: listed apart in the source
Protocol: as §2

[8] = tested on: fluoride riboswitch from the P. syringae eriC gene fused to lacZ
Protocol: as §3
The 5′ UTR of COG0038 (eriC^F homolog) was amplified from P. syringae DC3000 genomic DNA as an EcoRI-BamHI fragment and cloned into the translational reporter vector pRS414. […] Specifically, the region encompassing nucleotides −248 to +24 with respect to the beginning of the eriC^F ORF was cloned as a translational fusion in pRS414, wherein the 8th codon of the ORF was fused in frame to the 9th codon of lacZ reporter gene. Mutations in the regulatory region were generated by a three-step PCR approach using methods described previously (A. Nahvi, et al., Chem. Biol. 9, 1043 (2002)).
as §5

[9] = tested on: riboswitch associated with B. cereus crcB fused to lacZ; conditions: increasing amounts of fluoride, X-gal and Miller assays with ONPG
Protocol: as §3

[10] = ligands at 10 mM or as in footnotes of Tables 1 and 2 (CO ~0.9 mM, NO 1 mM)

Protocol for WT E. coli cells: For each bacterial strain, an overnight culture was set up of the desired bacteria the previous day. The majority of the growth curves were conducted in 350 μL LB medium that initially was not supplemented with salt. […] The desired concentration of NaF or NaCl was subsequently added as designated for each culture after a 1:100 dilution of an overnight culture. Wells with NaF concentrations below 1 mM were supplemented with 1 mM NaCl. Each condition was set up in duplicate or triplicate. Every fifteen minutes the 100-well plate was shaken at medium intensity for 10 seconds and the OD600 was automatically measured for a period of 16 hours. The data was analyzed using Microsoft Excel.

**Q.** For I [iodide], which “binding / structure modulation by other ligands” value (“binding / structure modulation” below) [1, 10] is on record?
**A.** The value was “rejects”.

**Q.** For CN(C)CCCN1c2ccccc2CCc2ccccc21 [imipramine, 3-(10,11-dihydro-5H-dibenzo[b,f]azepin-5-yl)-N,N-dimethylpropan-1-amine], which “reporter gene expression (fluorescence, 4-MUG)” value ([2]; 330 μM imipramine, with sodium fluoride) is on record?
**A.** The value was “increased expression of the reporter gene”.

**Q.** What about the “action on fluoride transporter CrcB” value ([2]; concluded from reporter results with and without CrcB) of the same compound?
**A.** Its value is “blocks this fluoride transporter”.

**Q.** And the “level of reporter gene expression with imipramine” value [3]?
**A.** Its value is “substantially reduced”.

**Q.** What does the source list for [F-].[Na+] [NaF, sodium fluoride]?
**A.** conformational changes of 78 Psy crcB motif RNA [1]: trigger identical conformational changes; concentration at which growth becomes noticeably reduced (WT E. coli cells; liquid media): 30 mM; minimum inhibitory concentration (MIC) (WT E. coli cells; liquid media, 16 hr growth curves): ~200 mM

**Q.** How did the “binding / structure modulation” value [1, 10] turn out when [C-]#[O+] [carbon monoxide] was run?
**A.** The value was “rejected”.

**Q.** Br [bromide] was tested. Which “binding / structure modulation” value [1] did it give?
**A.** Its value is “rejects”.

**Q.** For CCCC[N+](CCCC)(CCCC)CCCC.[F-] [TBAF, Tetra-n-butylammonium fluoride], which “conformational changes of 78 Psy crcB motif RNA” value [1] is on record?
**A.** Its value is “trigger identical conformational changes”.

**Q.** With Cl [chloride] as the compound, how does the “78 Psy aptamer structure on exposure to chloride” value [1] read?
**A.** Its value is “remains unchanged”.

**Q.** And the “binding / structure modulation” value [1]?
**A.** The value was “rejects”.

**Q.** [N]=O [nitric oxide] was tested. Which “binding / structure modulation” value [1, 10] did it give?
**A.** Its value is “rejected”.

**Q.** For O [hydroxide ions, hydroxide], which “RNA conformational changes with hydroxide” value ([1]; pH 9.7) is on record?
**A.** The value was “do not trigger RNA conformational changes”.

**Q.** For [Ca+2].[Cl-].[Cl-] [Ca^2+, calcium chloride], which “effect on fluoride-dependent RNA structural modulation” value [1] is on record?
**A.** The value was “diminishes RNA structural modulation; also recorded: complete loss of modulation”.

**Q.** F [fluoride] was tested. Which Kd (crcB motif RNA [4]) did it give?
**A.** The Kd was about 50 µM.

**Q.** What about the “selectivity of aptamer binding, fluoride versus chloride” value [1] of the same compound?
**A.** Its value is “at least 40,000 fold”.

**Q.** What about the Kd ([1]; read-out: apparent dissociation constant (KD)) of the same compound?
**A.** The Kd was ~60 µM and 60 µM.

**Q.** And the growth ([5]; 50 mM fluoride)?
**A.** Its growth is “fails to grow”.

**Q.** And the MIC ([5]; Escherichia coli, 16 h, read-out: minimum inhibitory concentration (MIC))?
**A.** Its MIC is over 1000 µM.

**Q.** And the growth inhibition ([6]; 1 mM fluoride)?
**A.** Its growth inhibition is “almost no growth inhibition”.

**Q.** What about the “fluoride concentration in culture medium required to cause growth inhibition and reporter expression” value ([6]; eriC^F-rescued cells) of the same compound?
**A.** Its value is about 10 mM.

**Q.** And the Kd (crcB motif RNA [7])?
**A.** The Kd was about 50 µM.

**Q.** And the growth (WT E. coli cells; 50 mM fluoride)?
**A.** The growth was “robust growth”.

**Q.** And the “fluoride concentration in growth medium yielding maximal reporter gene signal” value ([8]; crcB K.O. strain)?
**A.** The value was 1 mM.

**Q.** And the β-galactosidase expression ([8]; solid medium supplemented with 50 mM fluoride)?
**A.** Its β-galactosidase expression is “readily apparent”.

**Q.** And the β-galactosidase reporter activity [9]?
**A.** The β-galactosidase reporter activity was “induced high levels of expression”.

**Q.** How did the “conformational changes of 78 Psy crcB motif RNA” value [1] turn out when F.[F-].[K+] [potassium bifluoride] was run?
**A.** The value was “trigger identical conformational changes”.
